ChEMBL document CHEMBL1157539, “Thousands of chemical starting points for antimalarial lead identification” (Nature, 2010)

These compounds were tested on Plasmodium falciparum (assay: GSK_TCMDC: Inhibition of Plasmodium falciparum 3D7 in whole erythrocytes, using parasite LDH activity as an index of growth.). Conditions: Plasmodium falciparum, 3D7.
Type: functional, organism-based

In order of falling XC50:
1. O=C(Nc1ccc(Cl)cc1)c1cc(Cl)ccc1NC(=O)C1CCc2ccccc2O1 (centres undefined)  1.79 µM
2. Cc1ccc2c(Cl)c(C(=O)N3CCCc4ccccc43)sc2c1  1.51 µM
3. COc1ccccc1-c1cccc(CNC2CCN(CC3Cn4c(=O)ccc5ccc(F)c3c54)CC2)c1 (centres undefined)  1.38 µM
4. Cc1ccc(-n2nc(-c3ccccc3)c3cc(C(=O)NCCN)sc32)cc1  1.37 µM
5. O=C(Nc1cc(C(F)(F)F)ccc1Cl)c1ccc(Cn2cc(Br)cn2)cc1  1.35 µM
6. Cc1ccccc1C1CCN(C2CCC(NC(=O)c3ccc4c(c3)-c3nocc3C(C)O4)CC2)CC1 (centres undefined)  1.27 µM
7. FC(F)(F)CNc1nc(Nc2ccc3ncccc3c2)nc2[nH]ccc12  1.24 µM
8. Cc1cc(NCCC(=O)Nc2ccccc2)nc(NCCc2cccnc2)n1  1.24 µM
9. O=C(/C=C/c1ccc(Cl)c(Cl)c1)N1CCC(CNCc2cccc3cc[nH]c23)CC1  1.22 µM
10. CN/C(=N\O)NCCN(C)C  1.18 µM
11. COc1cc(Cc2cnc(N)nc2N)cc(OCCCS(=O)(=O)O)c1OC  1.17 µM
12. Cc1c(CC(=O)N(C)C2CCN(CCCCCNC(=O)/C=C/c3ccc(Cl)c(Cl)c3)CC2)sc2ccc(Cl)cc12  1.16 µM
13. CN(C)Cc1ccc(O)c(-c2ccc(C(C)(C)C)cc2)n1  1.08 µM
14. CCOC(=O)N[C@@H]1CN[C@@H](C#Cc2cc3c(Nc4ccc(OCc5cccc(F)c5)c(Cl)c4)ncnc3s2)C1  1.08 µM
15. O=C(NC1CCC(CN2CCC(c3c[nH]c4ccccc34)CC2)CC1)NC12CC3CC(CC(C3)C1)C2 (centres undefined)  1.06 µM
16. CC(C)N1CCC(N(Cc2ccc(-c3ccc(C(F)(F)F)cc3)cc2)C(=O)Cn2c(SCc3cccc(F)c3F)nc(=O)c3ccccc32)CC1  1.05 µM
17. CN1c2ccccc2Sc2cc(CNCCSCCNCc3ccc4c(c3)Sc3ccccc3N4C)ccc21  1.01 µM
18. COC[C@H]1CCCN1Cc1ccc(-c2ccc(-c3nc4ccccc4[nH]3)s2)cc1  1 µM
19. Clc1ccc(CNCC2CCN(CC3CCCCC3)CC2)cc1Cl  1 µM
20. Clc1ncccc1-c1nc(NCCC(c2ccccc2)c2ccccc2)no1  1 µM
21. COc1cc2c(cc1OC)C(C(=O)Nc1cc(OC)c(OC)c(OC)c1)C(c1ccc(SC)cc1)N(C)C2=O (centres undefined)  0.986 µM
22. CC(C)N1CCC(N(Cc2ccc(-c3ccc(C(F)(F)F)cc3)cc2)C(=O)CCCn2c(CCc3cccc(F)c3F)nc(=O)c3ccccc32)CC1  0.972 µM
23. O=C(Nc1nccs1)c1cn(-c2ccccc2)nc1-c1ccc(Cl)s1  0.97 µM
24. COc1cccc(CN2CCC(N3CCc4cc(NC(=O)c5cc(C)on5)ccc43)C2)c1OC (centres undefined)  0.952 µM
25. COc1ccc(N2CCN(CCCN3CCN(C(=O)c4ccc(/C=C/c5ccc(Cl)c(Cl)c5)cc4)CC3)CC2)c(OC)c1  0.907 µM
26. Cc1cccc2nc(-c3ccc(-c4ccc(C(=O)NCCN5CCCC5)cc4)s3)[nH]c12  0.901 µM
27. Cc1ccccc1CNc1nccc(NCCC(=O)Nc2ccccc2)n1  0.892 µM
28. O=C(Nc1ccc(Oc2ccccc2)cc1)N(Cc1ccc(-c2ccc(CN3CCNCC3)cc2)cc1)C1CCN(Cc2ccccc2)CC1  0.886 µM
29. Fc1cccc(COc2ccc(Nc3ncnc4ccc(C#C[C@H]5CCCN5)cc34)cc2Cl)c1  0.882 µM
30. Cc1cccc(CNc2nc(C)cc(NCCC(=O)NCCOc3ccccc3)n2)c1  0.871 µM
31. CC(C)(C)OC(=O)NCc1ccc(Nc2nnc(-c3cccc(C(=O)NCc4cc(C(F)(F)F)cc(C(F)(F)F)c4)c3)o2)cc1  0.865 µM
32. CCCOc1ccc(-c2nonc2NC(=O)c2ccccc2OC)cc1OCCC  0.858 µM
33. c1ccc(COc2ccc(Nc3ncnc4cnc(-c5ccc(CNc6cccnc6)o5)cc34)cc2)cc1  0.857 µM
34. CN(C)c1ccc(-c2nnc(Sc3ccc(C#N)c([N+](=O)[O-])c3)n2Cc2ccco2)cc1  0.854 µM
35. O=S(=O)(NCCN1CCCC1)c1cccc(-c2cccc(CNCc3ccc(F)cc3)c2)c1  0.848 µM
36. O=C(Nc1ccnc(-c2cccnc2)n1)c1cc(C(F)(F)F)cc(C(F)(F)F)c1  0.823 µM
37. O=C(/C=C/c1ccc(Cl)c(Cl)c1)NCCCCCN1CCN(C(=O)Nc2ccc(Cl)c(C(F)(F)F)c2)CC1  0.816 µM
38. O=C(/C=C/c1ccc(Cl)c(Cl)c1)NCCCCCN1CCCC(c2c[nH]c3ccccc23)C1 (centres undefined)  0.812 µM
39. O=S(=O)(NCCN1CCCC1)c1cccc(-c2cccc(CNCc3ccccc3)c2)c1  0.811 µM
40. CC(CN1CCN(C)CC1)C(=O)Nc1ccc(-c2ccc(-c3nc4cc(F)ccc4[nH]3)cc2)cc1 (centres undefined)  0.792 µM
41. CC(C)(C)C1CCc2onc(C(=O)Nc3cc(Cl)ccc3O)c2C1 (centres undefined)  0.779 µM
42. CON=Cc1ccn(-c2ccc(O)c3c2C[C@H]2C[C@H]4[C@H](N(C)C)C(O)=C(C(N)=O)C(=O)[C@@]4(O)C(O)=C2C3=O)c1  0.773 µM
43. O=C(/C=C/c1ccc(Cl)c(Cl)c1)NCCCCCN1CCCN(C(=O)Nc2cc(F)cc(F)c2)CC1  0.768 µM
44. c1cc(-c2ccc(CNC3CCOCC3)cc2)cc(-c2nc3ccccc3[nH]2)c1  0.768 µM
45. CCN(CC)CCN(CCCc1ccc(-c2ccc(C(F)(F)F)cc2)cc1)C(=O)Cn1c(CCc2cccc(F)c2F)nc(=O)c2ccccc21  0.767 µM
46. Cc1ccc(Nc2nc3cc(Nc4ccnc(Nc5ccc(CS(C)(=O)=O)cc5)n4)ccc3o2)cc1  0.765 µM
47. Cc1nc(-c2cccc3c(NC(=O)N4CCc5cc6nccc(N7CCN(C)CC7)c6cc54)cccc23)no1  0.76 µM
48. N#Cc1cccc(C(=O)Nc2cccc(-c3ccc(C(=O)NCCCN4CCOCC4)cc3)c2)c1  0.749 µM
49. COc1cccc(CN2CCCC(CCC(=O)Nc3ccc(C(F)(F)F)cc3)C2)c1O (centres undefined)  0.747 µM
50. OC(c1nnc(S)n1-c1ccccc1)C(O)c1nnc(S)n1-c1ccccc1 (centres undefined)  0.741 µM
51. COc1ccc2c(c1)c(C1CCN(CCCCNC(=O)c3ccc(-c4ccc(C(F)(F)F)cc4)cc3)CC1)cn2C(C)C  0.729 µM
52. Cc1cccc2nc(-c3cccc(-c4ccc(NC(=O)c5c[nH]cn5)cc4)c3)[nH]c12  0.722 µM
53. Cc1cccc(-c2nc(Nc3ccncc3)c3cc(N(C)C)ccc3n2)n1  0.71 µM
54. COc1cc(NC(=O)NC(CCN2CCC3(CCc4ccccc43)CC2)c2ccc(Cl)c(Cl)c2)cc(OC)c1OC (centres undefined)  0.679 µM
55. CC(C)(C)Nc1cc(C2CC2)nc(-c2ccccn2)n1  0.679 µM
56. CC(Cc1ccc(C(=O)N2CCN(C(=O)c3ccc(CC(C)NCCc4cccc(Cl)c4)cc3)CC2)cc1)NCCc1cccc(Cl)c1 (centres undefined)  0.677 µM
57. CC(C)n1ncc2c(C(=O)N3CCCC4CCCCC43)cc(C3CC3)nc21 (centres undefined)  0.676 µM
58. CCOc1ccc2c(=NN=Cc3ccccc3F)cc(C)[nH]c2c1  0.676 µM
59. CN1CCC(C(=O)N(Cc2ccc(-c3ccc(CNCCc4ccc(S(C)(=O)=O)cc4)cn3)cc2)C2CCN(Cc3ccccc3)CC2)CC1  0.673 µM
60. O=C(NCCCNc1ccc2ccccc2n1)c1cc2c(Cl)cc(Cl)cc2[nH]1  0.604 µM
61. CCOc1c(CCNCCCCNCCc2ccc3ccccc3c2OCC)ccc2ccccc12  0.596 µM
62. Cc1ccccc1N1CCN(c2ccc(C(=O)Nc3ccccc3)cn2)CC1  0.587 µM
63. Cc1ccc2c(c1)nc(N)n2C[C@H](O)c1ccccc1  0.582 µM
64. FC(F)(F)c1cccc(CNC2CCN(CC3CCCCC3)CC2)c1  0.575 µM
65. CCN(CC)CCCC(C)N=c1cc(C=Cc2ccc([N+](=O)[O-])cc2)[nH]c2ccc(OC)cc12 (centres undefined)  0.574 µM
66. CC(=O)Nc1ccc(OCCCCN(Cc2ccccc2C(F)(F)F)c2ccc(C(F)(F)F)c(C#N)c2)c(Cl)c1  0.545 µM
67. Cc1cc(C)cc(CC(=O)N2CCC(n3c(C)nc4ccc(C)cc43)CC2)c1  0.534 µM
68. Cc1nnc(N2C(=N)SC(=Cc3ccc(-c4ccc(OC(F)(F)F)cc4)o3)C2=O)s1  0.526 µM
69. OCC1CCN(Cc2ccc(-c3ccc(-c4nc5cc(C(F)(F)F)ccc5[nH]4)s3)cc2)CC1  0.477 µM
70. CC(C)CNCc1cccc(-c2ccc(CN(C(=O)Nc3ccccc3)C3CCN(Cc4ccccc4)CC3)cc2)c1  0.476 µM
71. O=c1cc(NCCCNCc2cc3c(Cl)cccc3s2)[nH]c2ccccc12  0.474 µM
72. CC(C)CNCc1ccc(-c2cccc(CN(C(=O)Nc3ccccc3)C3CCN(Cc4ccccc4)CC3)c2)cc1  0.41 µM
73. CCCCN(CCCC)/C(=N/C(=N)NCc1ccc(Cl)c(Cl)c1)NCCCCCCN/C(=N\C(=N)NCc1ccc(Cl)c(Cl)c1)N(CCCC)CCCC  0.399 µM
74. CC1CN(c2cc(=O)n(Cc3cccc(NC(=O)Nc4ccc(-c5ccccc5)cc4)c3)cn2)CC(C)N1 (centres undefined)  0.396 µM
75. Cc1cccc2nc(-c3ccc(-c4ccc(CN5CCCC(N)C5)cc4)s3)[nH]c12 (centres undefined)  0.382 µM
76. O=C(Nc1ccc(Cl)cc1C(=O)Nc1cccc(F)c1)c1ccc([N+](=O)[O-])cc1  0.365 µM
77. CC(Cc1ccc(NC(=O)c2ccc(CNCCc3ccccc3)cc2)cc1)NCCc1cccc(Cl)c1 (centres undefined)  0.353 µM
78. N#Cc1ccc(N/C(=N\c2ccc(-c3ccccc3)cc2)NCCc2c[nH]c3ccccc23)c(O)c1  0.336 µM
79. CN(C)CCC(=O)c1ccccc1  0.335 µM
80. CCC[C@@H]([C@@H](CC1CCC(C)CC1)C(=O)N[C@@H](CO)C(=O)Nc1nccs1)N(O)C=O (some centres undefined)  0.325 µM
81. Cc1c(NCCCNCc2cc(Cl)cc(Cl)c2Cl)[nH]c2ccccc2c1=O  0.314 µM
82. O=C(Nc1ccccc1)N(Cc1ccc(-c2cccc(CNCc3ccc4c(c3)OCO4)c2)cc1)C1CCN(Cc2ccccc2)CC1  0.284 µM
83. CCC(=Cc1cccc([N+](=O)[O-])c1)C(=O)NCC1CCN(c2nc3cc(OC)c(OC)cc3c(=N)[nH]2)CC1  0.236 µM
84. c1cc(-c2cc3ccc(C4=NCCN4)cc3[nH]2)ccc1C1=NCCN1  0.224 µM
85. Cc1[nH]c(C)c(-c2ccc(-c3ccccc3Cl)nc2)c(=O)c1Cl  0.217 µM
86. O=C(Nc1ccc(OC2CCN(Cc3ccc(F)cc3)CC2)c(Cl)c1)c1ccc(F)cc1  0.188 µM
87. O=C(c1ccc([N+](=O)[O-])o1)N1CCC(Cc2ccc(C(F)(F)F)cc2)CC1  0.166 µM
88. CCOC(=O)CNCC(=O)c1ccc(OCc2ccccc2)cc1  0.161 µM
89. CC(C)c1ccc(N2CCN(CCCCNC(=O)c3ccc(NC(=O)c4cc(Cl)cc(Cl)c4)cc3)CC2)cc1  0.155 µM
90. Cc1cccc2nc(-c3ccc(-c4ccc(CN5CCN(CC6CCCN(C)C6)CC5)cc4)cc3)[nH]c12 (centres undefined)  0.144 µM
91. CCC(CN1C(=O)C(c2ccccc2)(c2ccccc2)N=C1N)c1ccccc1 (centres undefined)  0.136 µM
92. CCCOC(=O)C1=C(C)NC2=C(C(=O)CC(c3ccc(OC)c(OC)c3)C2)C1c1cccc(O)c1 (centres undefined)  0.121 µM
93. CN(C)CC(O)C(c1ccccc1)c1ccc(Cl)cc1 (centres undefined)  0.0484 µM
94. COc1cc(NC(=O)c2sc(-c3ccc(Cl)cc3)cc2NC(=O)c2ccncc2)ccc1OCCN1CCCC1  0.0315 µM
